According to ChEMBL document CHEMBL5303573, “Mapping human microbiome drug metabolism by gut bacteria and their genes” (Nature, 2019):

Test: The drug is tested on Subdoligranulum variabile strain: DSM15176 for biotransformation. The drug concentrations were measured before and after a 12-h incubation by liquid-chromatography-coupled mass spectrometry (LC–MS)
Details: 2 µM

With `CN(C)CCc1c[nH]c2ccc(CS(=O)(=O)N3CCCC3)cc12` [ALMOTRIPTAN] as the compound, how does the “Bacterial Biotransformation” value read?
Its value is “Compound NOT metabolized”.

For `COc1cc2c(c(OC)c1OC)-c1ccc(OC)c(=O)cc1[C@@H](NC(C)=O)CC2` [COLCHICINE], which “Bacterial Biotransformation” value is on record?
Its value is “Compound NOT metabolized”.

Test: The drug is tested on Bacteroides vulgatus strain: ATCC8482 for biotransformation. The drug concentrations were measured before and after a 12-h incubation by liquid-chromatography-coupled mass spectrometry (LC–MS)
Details: phocaeicola vulgatus, 2 µM

For `CN(C)CCc1c[nH]c2ccc(CS(=O)(=O)N3CCCC3)cc12` [ALMOTRIPTAN], which “Bacterial Biotransformation” value is on record?
Its value is “Compound NOT metabolized”.

For `COc1cc2c(c(OC)c1OC)-c1ccc(OC)c(=O)cc1[C@@H](NC(C)=O)CC2` [COLCHICINE], which “Bacterial Biotransformation” value is on record?
The value was “Compound metabolized”.

Details: segatella copri, 12 h, 2 µM
Description: The drug is tested on Prevotella copri strain: DSM18205 for biotransformation. The drug concentrations were measured before and after a 12-h incubation by liquid-chromatography-coupled mass spectrometry (LC–MS)

With `CN(C)CCc1c[nH]c2ccc(CS(=O)(=O)N3CCCC3)cc12` [ALMOTRIPTAN] as the compound, how does the “Bacterial Biotransformation” value read?
Its value is “Compound NOT metabolized”.

For `COc1cc2c(c(OC)c1OC)-c1ccc(OC)c(=O)cc1[C@@H](NC(C)=O)CC2` [COLCHICINE], which “Bacterial Biotransformation” value is on record?
The value was “Compound metabolized”.

Test: The drug is tested on Eubacterium ventriosum strain: ATCC27560 for biotransformation. The drug concentrations were measured before and after a 12-h incubation by liquid-chromatography-coupled mass spectrometry (LC–MS)
Type: ADME
Design: dose 2 uM, timepoint 0 vs 12 hours
Details: 2 µM

For `CN(C)CCc1c[nH]c2ccc(CS(=O)(=O)N3CCCC3)cc12` [ALMOTRIPTAN], which “Bacterial Biotransformation” value is on record?
The value was “Compound NOT metabolized”.

Which “Bacterial Biotransformation” value does the source give for `COc1cc2c(c(OC)c1OC)-c1ccc(OC)c(=O)cc1[C@@H](NC(C)=O)CC2` [COLCHICINE] here?
The value was “Compound NOT metabolized”.

Test: The drug is tested on Bifidobacterium breve strain: DSM20213 for biotransformation. The drug concentrations were measured before and after a 12-h incubation by liquid-chromatography-coupled mass spectrometry (LC–MS)
Details: 2 µM

With `CN(C)CCc1c[nH]c2ccc(CS(=O)(=O)N3CCCC3)cc12` [ALMOTRIPTAN] as the compound, how does the “Bacterial Biotransformation” value read?
The value was “Compound NOT metabolized”.

Which “Bacterial Biotransformation” value does the source give for `COc1cc2c(c(OC)c1OC)-c1ccc(OC)c(=O)cc1[C@@H](NC(C)=O)CC2` [COLCHICINE] here?
The value was “Compound NOT metabolized”.

Details: roseburia intestinalis, 12 h, 2 µM
Description: The drug is tested on Roseburia intestinalis strain: L1-82 for biotransformation. The drug concentrations were measured before and after a 12-h incubation by liquid-chromatography-coupled mass spectrometry (LC–MS)

For `CN(C)CCc1c[nH]c2ccc(CS(=O)(=O)N3CCCC3)cc12` [ALMOTRIPTAN], which “Bacterial Biotransformation” value is on record?
Its value is “Compound NOT metabolized”.

For `COc1cc2c(c(OC)c1OC)-c1ccc(OC)c(=O)cc1[C@@H](NC(C)=O)CC2` [COLCHICINE], which “Bacterial Biotransformation” value is on record?
The value was “Compound metabolized”.

Test: The drug is tested on Bacteroides sp. WH2 strain: WH2 for biotransformation. The drug concentrations were measured before and after a 12-h incubation by liquid-chromatography-coupled mass spectrometry (LC–MS)
Details: bacteroides sp. wh2, 12 h, 2 µM

With `CN(C)CCc1c[nH]c2ccc(CS(=O)(=O)N3CCCC3)cc12` [ALMOTRIPTAN] as the compound, how does the “Bacterial Biotransformation” value read?
The value was “Compound NOT metabolized”.

Details: bacteroides thetaiotaomicron, 12 h, 2 µM
Description: The drug is tested on Bacteroides thetaiotaomicron strain: VPI-5482 for biotransformation. The drug concentrations were measured before and after a 12-h incubation by liquid-chromatography-coupled mass spectrometry (LC–MS)

Which “Bacterial Biotransformation” value does the source give for `COc1cc2c(c(OC)c1OC)-c1ccc(OC)c(=O)cc1[C@@H](NC(C)=O)CC2` [COLCHICINE] here?
Its value is “Compound metabolized”.

Details: bacteroides thetaiotaomicron, 12 h, 2 µM
Remark: another data set of the same source
Description: The drug is tested on Bacteroides thetaiotaomicron strain: 7330 for biotransformation. The drug concentrations were measured before and after a 12-h incubation by liquid-chromatography-coupled mass spectrometry (LC–MS)

With `CN(C)CCc1c[nH]c2ccc(CS(=O)(=O)N3CCCC3)cc12` [ALMOTRIPTAN] as the compound, how does the “Bacterial Biotransformation” value read?
The value was “Compound NOT metabolized”.

With `COc1cc2c(c(OC)c1OC)-c1ccc(OC)c(=O)cc1[C@@H](NC(C)=O)CC2` [COLCHICINE] as the compound, how does the “Bacterial Biotransformation” value read?
The value was “Compound metabolized”.

Test: The drug is tested on Dorea formicigenerans strain: ATCC27755 for biotransformation. The drug concentrations were measured before and after a 12-h incubation by liquid-chromatography-coupled mass spectrometry (LC–MS)
Details: 2 µM

For `CN(C)CCc1c[nH]c2ccc(CS(=O)(=O)N3CCCC3)cc12` [ALMOTRIPTAN], which “Bacterial Biotransformation” value is on record?
Its value is “Compound NOT metabolized”.

With `COc1cc2c(c(OC)c1OC)-c1ccc(OC)c(=O)cc1[C@@H](NC(C)=O)CC2` [COLCHICINE] as the compound, how does the “Bacterial Biotransformation” value read?
The value was “Compound NOT metabolized”.

Details: akkermansia muciniphila, 12 h, 2 µM
Description: The drug is tested on Akkermansia muciniphila strain: ATCC BAA-835 for biotransformation. The drug concentrations were measured before and after a 12-h incubation by liquid-chromatography-coupled mass spectrometry (LC–MS)

Which “Bacterial Biotransformation” value does the source give for `COc1cc2c(c(OC)c1OC)-c1ccc(OC)c(=O)cc1[C@@H](NC(C)=O)CC2` [COLCHICINE] here?
Its value is “Compound NOT metabolized”.

Details: bacteroides eggerthii, 12 h, 2 µM
Description: The drug is tested on Bacteroides eggerthii strain: DSM20697 for biotransformation. The drug concentrations were measured before and after a 12-h incubation by liquid-chromatography-coupled mass spectrometry (LC–MS)

For `CN(C)CCc1c[nH]c2ccc(CS(=O)(=O)N3CCCC3)cc12` [ALMOTRIPTAN], which “Bacterial Biotransformation” value is on record?
The value was “Compound NOT metabolized”.

With `COc1cc2c(c(OC)c1OC)-c1ccc(OC)c(=O)cc1[C@@H](NC(C)=O)CC2` [COLCHICINE] as the compound, how does the “Bacterial Biotransformation” value read?
Its value is “Compound metabolized”.

Test: The drug is tested on Clostridium asparagiforme strain: DSM15981 for biotransformation. The drug concentrations were measured before and after a 12-h incubation by liquid-chromatography-coupled mass spectrometry (LC–MS)
Type: ADME
Design: dose 2 uM, timepoint 0 vs 12 hours
Details: enterocloster asparagiformis, 2 µM

With `CN(C)CCc1c[nH]c2ccc(CS(=O)(=O)N3CCCC3)cc12` [ALMOTRIPTAN] as the compound, how does the “Bacterial Biotransformation” value read?
Its value is “Compound NOT metabolized”.

With `COc1cc2c(c(OC)c1OC)-c1ccc(OC)c(=O)cc1[C@@H](NC(C)=O)CC2` [COLCHICINE] as the compound, how does the “Bacterial Biotransformation” value read?
The value was “Compound NOT metabolized”.

Test: The drug is tested on Blautia luti strain: DSM14534 for biotransformation. The drug concentrations were measured before and after a 12-h incubation by liquid-chromatography-coupled mass spectrometry (LC–MS)
Type: ADME
Design: dose 2 uM, timepoint 0 vs 12 hours
Details: 2 µM

With `CN(C)CCc1c[nH]c2ccc(CS(=O)(=O)N3CCCC3)cc12` [ALMOTRIPTAN] as the compound, how does the “Bacterial Biotransformation” value read?
The value was “Compound NOT metabolized”.

With `COc1cc2c(c(OC)c1OC)-c1ccc(OC)c(=O)cc1[C@@H](NC(C)=O)CC2` [COLCHICINE] as the compound, how does the “Bacterial Biotransformation” value read?
The value was “Compound NOT metabolized”.

Test: The drug is tested on Collinsella intestinalis strain: DSM13280 for biotransformation. The drug concentrations were measured before and after a 12-h incubation by liquid-chromatography-coupled mass spectrometry (LC–MS)
Details: 2 µM

For `CN(C)CCc1c[nH]c2ccc(CS(=O)(=O)N3CCCC3)cc12` [ALMOTRIPTAN], which “Bacterial Biotransformation” value is on record?
Its value is “Compound NOT metabolized”.

Which “Bacterial Biotransformation” value does the source give for `COc1cc2c(c(OC)c1OC)-c1ccc(OC)c(=O)cc1[C@@H](NC(C)=O)CC2` [COLCHICINE] here?
The value was “Compound NOT metabolized”.

Test: The drug is tested on Bacteroides fragilis strain: HMW610 for biotransformation. The drug concentrations were measured before and after a 12-h incubation by liquid-chromatography-coupled mass spectrometry (LC–MS)
Details: 2 µM

For `COc1cc2c(c(OC)c1OC)-c1ccc(OC)c(=O)cc1[C@@H](NC(C)=O)CC2` [COLCHICINE], which “Bacterial Biotransformation” value is on record?
The value was “Compound metabolized”.

Test: The drug is tested on Blautia hansenii strain: DSM20583 for biotransformation. The drug concentrations were measured before and after a 12-h incubation by liquid-chromatography-coupled mass spectrometry (LC–MS)
Details: 2 µM

With `COc1cc2c(c(OC)c1OC)-c1ccc(OC)c(=O)cc1[C@@H](NC(C)=O)CC2` [COLCHICINE] as the compound, how does the “Bacterial Biotransformation” value read?
The value was “Compound metabolized”.
